Assay results from patent US20180148418A1, “AMIDO-SUBSTITUTED CYCLOHEXANE DERIVATIVES” (Bayer Pharma Aktiengesellschaft, priority 2015, published 2018).

Target: T1, TNKS2 (Homo sapiens, UniProt Q9H2K2)
T1 construct: purchased BPS Bioscience, San Diego, USA 80572 (TNKS2 Histone Ribosylation Assay Kit)
T1 sequence (Q9H2K2 1-1166): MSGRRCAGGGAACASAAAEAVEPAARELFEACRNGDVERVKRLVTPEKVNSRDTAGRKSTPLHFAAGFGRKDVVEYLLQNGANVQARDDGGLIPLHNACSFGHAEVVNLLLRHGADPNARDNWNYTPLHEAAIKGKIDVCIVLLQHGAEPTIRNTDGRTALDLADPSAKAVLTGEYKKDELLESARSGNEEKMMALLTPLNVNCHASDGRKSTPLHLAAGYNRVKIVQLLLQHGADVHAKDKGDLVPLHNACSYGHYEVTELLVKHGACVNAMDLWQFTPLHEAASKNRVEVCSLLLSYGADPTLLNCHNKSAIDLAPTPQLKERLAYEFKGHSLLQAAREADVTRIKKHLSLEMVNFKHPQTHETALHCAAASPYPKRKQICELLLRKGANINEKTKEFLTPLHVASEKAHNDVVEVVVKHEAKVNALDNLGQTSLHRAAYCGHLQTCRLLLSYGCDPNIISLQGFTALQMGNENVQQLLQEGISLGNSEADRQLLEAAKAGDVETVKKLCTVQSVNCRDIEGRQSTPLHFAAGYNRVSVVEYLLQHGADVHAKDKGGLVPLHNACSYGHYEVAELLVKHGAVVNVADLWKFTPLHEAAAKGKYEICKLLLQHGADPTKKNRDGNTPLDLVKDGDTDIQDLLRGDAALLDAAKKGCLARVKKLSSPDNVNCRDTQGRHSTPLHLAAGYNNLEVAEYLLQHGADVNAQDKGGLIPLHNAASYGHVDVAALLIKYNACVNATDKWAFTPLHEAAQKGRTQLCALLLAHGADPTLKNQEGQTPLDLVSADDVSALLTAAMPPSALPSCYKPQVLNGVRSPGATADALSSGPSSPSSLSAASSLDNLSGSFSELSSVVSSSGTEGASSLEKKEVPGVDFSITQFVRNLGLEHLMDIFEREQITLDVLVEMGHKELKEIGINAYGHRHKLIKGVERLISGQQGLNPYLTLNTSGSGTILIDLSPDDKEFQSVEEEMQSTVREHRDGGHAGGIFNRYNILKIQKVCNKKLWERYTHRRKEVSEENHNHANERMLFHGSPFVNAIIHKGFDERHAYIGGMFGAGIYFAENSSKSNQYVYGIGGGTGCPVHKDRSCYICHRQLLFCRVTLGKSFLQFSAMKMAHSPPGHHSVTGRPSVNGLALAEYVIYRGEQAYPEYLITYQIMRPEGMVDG
Assay: TNKS2 Assay B (auto-parsylation, [3H]-NAD+ SPA)
Assay type: biochemical
Conditions: 6 nM TNKS2, auto-parsylation, over night at room temperature

Row | IC50 | SMILES
1 | 190 nM | CNC(=O)c1[nH]cnc1C(=O)NC12CCC(C(=O)Nc3ccc(F)cc3Cl)(CC1)CC2 [Example 115, N^4-{4-[(2-chloro-4-fluorophenyl)carbamoyl]bicyclo[2.2.2]oct-1-yl}-N^5-methyl-1H-imidazole-4,5-dicarboxamide]
2 | 80 nM | CNC(=O)c1nc[nH]c1C(=O)N[C@H]1CC[C@H](C(=O)Nc2cc(C(F)(F)F)ccc2Cl)CC1 [Example 142, N^5-(trans-4-{[2-chloro-5-(trifluoromethyl)phenyl]carbamoyl}cyclohexyl)-N^4-methyl-1H-imidazole-4,5-dicarboxamide]
3 | 3.4 nM | CC1CCN(CCNC(=O)c2nc[nH]c2C(=O)N[C@H]2CC[C@@]3(CCN(c4ccc(F)cc4Cl)C3=O)CC2)CC1 [Example 160, N^5-[(trans)-2-(2-chloro-4-fluorophenyl)-1-oxo-2-azaspiro[4.5]dec-8-yl]-N^4-[2-(4-methylpiperidin-1-yl)ethyl]-1H-imidazole-4,5-dicarboxamide]
4 | 4.2 nM | Cc1cc(C)n2ncc(C(=O)N[C@H]3CC[C@@]4(CCN(c5ccc(F)cc5Cl)C4=O)CC3)c2n1 [Example 139, N-[(trans)-2-(2-chloro-4-fluorophenyl)-1-oxo-2-azaspiro[4.5]dec-8-yl]-5,7-dimethylpyrazolo[1,5-a]pyrimidine-3-carboxamide]
5 | 7 nM | O=C(N[C@H]1CC[C@@]2(CCN(c3ccc(F)cc3Cl)C2=O)CC1)c1cnc2cccnn12 [Example 138, N-[(trans)-2-(2-chloro-4-fluorophenyl)-1-oxo-2-azaspiro[4.5]dec-8-yl]imidazo[1,2-b]pyridazine-3-carboxamide]
6 | 2300 nM | CNC(=O)c1nc[nH]c1C(=O)N[C@H]1CC[C@H](C(=O)Nc2ccc(F)cc2)CC1 [Example 8, N^5-{trans-4-[(4-fluorophenyl)carbamoyl]cyclohexyl}-N^4-methyl-1H-imidazole-4,5-dicarboxamide]
7 | 480 nM | CC(O)CNc1ccc2ncc(C(=O)N[C@H]3CC[C@H](C(=O)Nc4ccc(F)cc4Cl)CC3)n2n1 (stereo partly drawn) [Example 114, N-{trans-4-[(2-chloro-4-fluorophenyl)carbamoyl]cyclohexyl}-6-[(2-hydroxypropyl)amino]imidazo[1,2-b]pyridazine-3-carboxamide]
8 | 170 nM | O=C(N[C@H]1CC[C@H](C(=O)Nc2cnc(C(F)(F)F)cc2Cl)CC1)c1cnn2cccnc12 [Example 149, N-(trans-4-{[4-chloro-6-(trifluoromethyl)pyridin-3-yl]carbamoyl}cyclohexyl)pyrazolo[1,5-a]pyrimidine-3-carboxamide]
9 | 120 nM | O=C(N[C@H]1CC[C@H](C(=O)Nc2ccncc2Cl)CC1)c1cnn2cccnc12 [Example 105, N-{trans-4-[(3-chloropyridin-4-yl)carbamoyl]cyclohexyl}pyrazolo[1,5-a]pyrimidine-3-carboxamide]
10 | 35 nM | Cc1cc(NC(=O)[C@H]2CC[C@H](NC(=O)c3cnn4cccnc34)CC2)c(Cl)cc1F [Example 150, N-{trans-4-[(2-chloro-4-fluoro-5-methylphenyl)carbamoyl]cyclohexyl}pyrazolo[1,5-a]pyrimidine-3-carboxamide]
11 | 52 nM | Cc1nc2c(C(=O)N[C@H]3CC[C@H](C(=O)Nc4ccc(F)cc4Cl)CC3)cnn2c2c1CCC2 [Example 113, N-{trans-4-[(2-chloro-4-fluorophenyl)carbamoyl]cyclohexyl}-5-methyl-7,8-dihydro-6H-cyclopenta[e]pyrazolo[1,5-a]pyrimidine-3-carboxamide]
12 | 77 nM | CNC(=O)c1nc[nH]c1C(=O)N[C@H]1CC[C@H](C(=O)Nc2ncncc2Cl)CC1 [Example 147, N^5-{trans-4-[(5-chloropyrimidin-4-yl)carbamoyl]cyclohexyl}-N^4-methyl-1H-imidazole-4,5-dicarboxamide]
13 | 86 nM | COCc1cc(C)n2ncc(C(=O)N[C@H]3CC[C@H](C(=O)Nc4ccc(F)cc4Cl)CC3)c2n1 [Example 110, N-{trans-4-[(2-chloro-4-fluorophenyl)carbamoyl]cyclohexyl}-5-(methoxymethyl)-7-methylpyrazolo[1,5-a]pyrimidine-3-carboxamide]
14 | 2.6 nM | O=C(N[C@H]1CC[C@@]2(CCN(c3ccc(F)cc3Cl)C2=O)CC1)c1[nH]cnc1C(=O)N1CC(F)C1 [Example 166, N-[(trans)-2-(2-chloro-4-fluorophenyl)-1-oxo-2-azaspiro[4.5]dec-8-yl]-4-[(3-fluoroazetidin-1-yl)carbonyl]-1H-imidazole-5-carboxamide]
15 | 190 nM | Cc1cc(NC(=O)C23CCC(NC(=O)c4cnc5cccnn45)(CC2)CC3)c(Cl)cc1F [Example 122, N-{4-[(2-chloro-4-fluoro-5-methylphenyl)carbamoyl]bicyclo[2.2.2]oct-1-yl}imidazo[1,2-b]pyridazine-3-carboxamide]
16 | 8.1 nM | CNC(=O)c1nc[nH]c1C(=O)N[C@H]1CC[C@H](C(=O)Nc2cc(F)c(F)cc2Cl)CC1 [Example 3, N^5-{trans-4-[(2-chloro-4,5-difluorophenyl)carbamoyl]cyclohexyl}-N^4-methyl-1H-imidazole-4,5-dicarboxamide]
17 | 39 nM | COC(C)(C)CNC(=O)c1nc[nH]c1C(=O)N[C@H]1CC[C@H](C(=O)Nc2cnccc2Cl)CC1 [Example 98, N^5-{trans-4-[(4-chloropyridin-3-yl)carbamoyl]cyclohexyl}-N^4-(2-methoxy-2-methylpropyl)-1H-imidazole-4,5-dicarboxamide]
18 | 230 nM | COC(C)(C)CNC(=O)c1nc[nH]c1C(=O)N[C@H]1CC[C@H](C(=O)Nc2cc(C(F)(F)F)ccc2Cl)CC1 [Example 144, N^5-(trans-4-{[2-chloro-5-(trifluoromethyl)phenyl]carbamoyl}cyclohexyl)-N^4-(2-methoxy-2-methylpropyl)-1H-imidazole-4,5-dicarboxamide]
19 | 280 nM | CNC(=O)c1nc[nH]c1C(=O)N[C@H]1CC[C@H](C(=O)N(CCO)c2ccc(F)cc2Cl)CC1 [Example 157, N^5-{trans-4-[(2-chloro-4-fluorophenyl)(2-hydroxyethyl)carbamoyl]cyclohexyl}-N^4-methyl-1H-imidazole-4,5-dicarboxamide]
20 | 5.9 nM | COCCNC(=O)c1nc[nH]c1C(=O)N[C@H]1CC[C@@]2(CCN(c3ccc(F)cc3Cl)C2=O)CC1 [Example 163, N^5-[(trans)-2-(2-chloro-4-fluorophenyl)-1-oxo-2-azaspiro[4.5]dec-8-yl]-N^4-(2-methoxyethyl)-1H-imidazole-4,5-dicarboxamide]
21 | 100 nM | COC(C)(C)CNC(=O)c1nc[nH]c1C(=O)N[C@H]1CC[C@H](C(=O)Nc2cc(C)c(F)cc2Cl)CC1 [Example 101, N^5-{trans-4-[(2-chloro-4-fluoro-5-methylphenyl)carbamoyl]cyclohexyl}-N^4-(2-methoxy-2-methylpropyl)-1H-imidazole-4,5-dicarboxamide]
22 | 91 nM | CN(c1ccc(F)cc1Cl)C(=O)[C@H]1CC[C@H](NC(=O)c2cnn3cccnc23)CC1 [Example 155, N-{trans-4-[(2-chloro-4-fluorophenyl)(methyl)carbamoyl]cyclohexyl}pyrazolo[1,5-a]pyrimidine-3-carboxamide]
23 | 74 nM | O=C(N[C@H]1CC[C@H](C(=O)Nc2ccc(F)cc2Cl)CC1)c1cnn2ccc(N3CCOCC3)nc12 [Example 107, N-{trans-4-[(2-chloro-4-fluorophenyl)carbamoyl]cyclohexyl}-5-(morpholin-4-yl)pyrazolo[1,5-a]pyrimidine-3-carboxamide]
24 | 210 nM | COCc1cc(C)nc2c(C(=O)N[C@H]3CC[C@H](C(=O)Nc4ccc(F)cc4Cl)CC3)cnn12 [Example 111, N-{trans-4-[(2-chloro-4-fluorophenyl)carbamoyl]cyclohexyl}-7-(methoxymethyl)-5-methylpyrazolo[1,5-a]pyrimidine-3-carboxamide]
25 | 55 nM | O=C(N[C@H]1CC[C@H](C(=O)Nc2c(F)cc(F)cc2Cl)CC1)c1cnc2cccnn12 [Example 133, N-{trans-4-[(2-chloro-4,6-difluorophenyl)carbamoyl]cyclohexyl}imidazo[1,2-b]pyridazine-3-carboxamide]

Row | SMILES | IC50
26 | CNC(=O)c1[nH]cnc1C(=O)NC1CCC(C(=O)Nc2ccc(F)cc2Cl)CC1OC (stereo not drawn) [Example 37, N^4-{(1α,2β,4β)-4-[(2-chloro-4-fluorophenyl)carbamoyl]-2-methoxycyclohexyl}-N^5-methyl-1H-imidazole-4,5-dicarboxamide] | > 10000 nM
